Key:
Colo205 cells = test: Analysis of Cell Proliferation and Viability; type: cell-based; settings: Homo sapiens, COLO 205, 72 hours, lower bound 100 nM, upper bound 1 uM nM [sic], read-out: IC50 values after 72 hours
Procedure: Compounds were screened for their ability to inhibit cell proliferation and their effects on cell viability using Colo205 cells obtained from ECACC and using the assay shown below.
Colo205 cells were seeded in 96 well plates and serially diluted compound was added to the wells in duplicate. Control groups included untreated cells, the compound diluent (0.1% DMSO alone) and culture medium without cells. The cells were then incubated for 72 or 96 hrs at 37 C in an atmosphere of 5% CO2/95% humidity.
To measure proliferation, 3 h prior to the end of the experiment 0.5 μCi of 3H thymidine was added to each well. Cells were then harvested and the incorporated radioactivity counted on a Wallac microplate beta-counter. Cell viability was assessed using Promega CellTiter 96AQ to measure MTS conversion. Dose response curves were calculated using either Prism 3.0 (GraphPad) or SoftMax Pro 4.3.1 LS (Molecular Devices) software.

Aurora-1 (Aurora B) = Aurora-1 (Aurora B) (Homo sapiens, UniProt Q96GD4); test: Aurora-1 (Aurora B) Inhibition Assay (Radiometric); type: biochemical; settings: 800 μM ATP, 25° C., read-out: inhibit Aurora A, Ki (printed under the Aurora-1 (Aurora B) assay)
Procedure: An assay buffer solution was prepared which consisted of 25 mM HEPES (pH 7.5), 10 mM MgCl2, 0.1% BSA and 10% glycerol. A 22 nM Aurora-B solution, also containing 1.7 mM DTT and 1.5 mM Kemptide (LRRASLG), was prepared in assay buffer. To 22 μL of the Aurora-B solution, in a 96-well plate, was added 2 μl of a compound stock solution in DMSO and the mixture allowed to equilibrate for 10 minutes at 25° C. The enzyme reaction was initiated by the addition of 16 μl stock [γ-^33P]-ATP solution (˜20 nCi/μL) prepared in assay buffer, to a final assay concentration of 800 μM. The reaction was stopped after 3 hours by the addition of 16 μL 500 mM phosphoric acid and the levels of ^33P incorporation into the peptide substrate were determined by the following method.
A phosphocellulose 96-well plate (Millipore, Cat no. MAPHNOB50) was pre-treated with 100 μL of a 100 mM phosphoric acid prior to the addition of the enzyme reaction mixture (40 μL). […] Levels of non-enzyme catalyzed background radioactivity were determined by adding 16 μL of the 500 mM phosphoric acid to control wells, containing all assay components (which acts to denature the enzyme), prior to the addition of the [γ-^33P]-ATP solution. Levels of enzyme catalyzed ^33P incorporation were calculated by subtracting mean background counts from those measured at each inhibitor concentration. […]

[1] = target: N-terminally truncated (Δ27) Abl kinase (Homo sapiens, UniProt P00519); test: Abl Kinase Activity Inhibition Assay (coupled enzyme system); type: biochemical; settings: 110 μM ATP, 21 nM Abl kinase, 30° C.; read-out: inhibit Abl kinase, Ki value
Procedure: Compounds were screened for their ability to inhibit N-terminally truncated (Δ27) Abl kinase activity using a standard coupled enzyme system (Fox et al., Protein Sci., 7, pp. 2249 (1998)). Reactions were carried out in a solution containing 100 mM HEPES (pH 7.5), 10 mM MgCl2, 25 mM NaCl, 300 μM NADH, 1 mM DTT and 3% DMSO. Final substrate concentrations in the assay were 110 μM ATP (Sigma Chemicals, St Louis, Mo.) and 70 μM peptide (EAIYAAPFAKKK, American Peptide, Sunnyvale, Calif.). Reactions were carried out at 30° C. and 21 nM Abl kinase. Final concentrations of the components of the coupled enzyme system were 2.5 mM phosphoenolpyruvate, 200 μM NADH, 60 μg/ml pyruvate kinase and 20 μg/ml lactate dehydrogenase.
An assay stock buffer solution was prepared containing all of the reagents listed above with the exception of ATP and the test compound of interest. The assay stock buffer solution (60 μl) was incubated in a 96 well plate with 2 μl of the test compound of interest at final concentrations typically spanning 0.002 μM to 30 μM at 30° C. for 10 min. […] Rates of reaction were obtained using a Molecular Devices Spectramax plate reader (Sunnyvale, Calif.) over 10 min at 30° C. The Ki values were determined from the residual rate data as a function of inhibitor concentration using nonlinear regression (Prism 3.0, Graphpad Software, San Diego, Calif.).

Aurora-2 (Aurora A) = target: T1, Aurora-2 (Aurora A) (Homo sapiens, UniProt O14965); test: Aurora-2 (Aurora A) Inhibition Assay (coupled enzyme assay); type: biochemical; settings: 400 μM ATP, 40 nM Aurora-2, 30° C.; read-out: inhibit Aurora A, Ki
T1 sequence (O14965 1-403): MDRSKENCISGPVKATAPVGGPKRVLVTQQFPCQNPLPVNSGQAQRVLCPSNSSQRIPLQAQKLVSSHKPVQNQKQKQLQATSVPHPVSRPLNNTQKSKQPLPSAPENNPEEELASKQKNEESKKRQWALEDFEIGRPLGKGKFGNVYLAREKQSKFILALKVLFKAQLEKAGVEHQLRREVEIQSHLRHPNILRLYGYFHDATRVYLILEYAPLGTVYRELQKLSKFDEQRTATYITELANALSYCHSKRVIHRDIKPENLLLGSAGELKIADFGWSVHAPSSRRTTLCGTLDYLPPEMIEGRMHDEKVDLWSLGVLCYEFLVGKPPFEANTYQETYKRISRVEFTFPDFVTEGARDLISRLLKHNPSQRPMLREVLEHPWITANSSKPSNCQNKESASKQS
Procedure: Compounds were screened for their ability to inhibit Aurora-2 using a standard coupled enzyme assay (Fox et al., Protein Sci., (1998) 7, 2249). Assays were carried out in a mixture of 100 mM Hepes (pH7.5), 10 mM MgCl2, 1 mM DTT, 25 mM NaCl, 2.5 mM phosphoenolpyruvate, 300 μM NADH, 30 μg/ml pyruvate kinase and 10 μg/ml lactate dehydrogenase. Final substrate concentrations in the assay were 400 μM ATP (Sigma Chemicals) and 570 μM peptide (Kemptide, American Peptide, Sunnyvale, Calif.). Assays were carried out at 30° C. and in the presence of 40 nM Aurora-2.
An assay stock buffer solution was prepared containing all of the reagents listed above, with the exception of Aurora-2 and the test compound of interest. 55 μl of the stock solution was placed in a 96 well plate followed by addition of 2 μl of DMSO stock containing serial dilutions of the test compound (typically starting from a final concentration of 7.5 μM). The plate was preincubated for 10 minutes at 30° C. and the reaction initiated by addition of 10 μl of Aurora-2. Initial reaction rates were determined with a Molecular Devices SpectraMax Plus plate reader over a 10 minute time course. IC50 and Ki data were calculated from non-linear regression analysis using the Prism software package (GraphPad Prism version 3.0cx for Macintosh, GraphPad Software, San Diego Calif., USA).

Sequence of Aurora-1 (Aurora B) (Q96GD4 whole entry): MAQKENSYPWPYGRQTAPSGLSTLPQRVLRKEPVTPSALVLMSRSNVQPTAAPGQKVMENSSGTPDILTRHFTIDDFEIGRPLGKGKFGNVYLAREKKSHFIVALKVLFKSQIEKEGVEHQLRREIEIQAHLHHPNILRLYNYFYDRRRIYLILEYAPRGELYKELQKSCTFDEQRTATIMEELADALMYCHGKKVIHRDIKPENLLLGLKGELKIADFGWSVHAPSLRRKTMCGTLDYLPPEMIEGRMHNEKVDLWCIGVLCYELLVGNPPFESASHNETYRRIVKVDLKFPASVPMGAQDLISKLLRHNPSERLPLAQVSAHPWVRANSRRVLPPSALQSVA
Sequence of N-terminally truncated (Δ27) Abl kinase (P00519 whole entry, stated change not applied, the tested form may be a part): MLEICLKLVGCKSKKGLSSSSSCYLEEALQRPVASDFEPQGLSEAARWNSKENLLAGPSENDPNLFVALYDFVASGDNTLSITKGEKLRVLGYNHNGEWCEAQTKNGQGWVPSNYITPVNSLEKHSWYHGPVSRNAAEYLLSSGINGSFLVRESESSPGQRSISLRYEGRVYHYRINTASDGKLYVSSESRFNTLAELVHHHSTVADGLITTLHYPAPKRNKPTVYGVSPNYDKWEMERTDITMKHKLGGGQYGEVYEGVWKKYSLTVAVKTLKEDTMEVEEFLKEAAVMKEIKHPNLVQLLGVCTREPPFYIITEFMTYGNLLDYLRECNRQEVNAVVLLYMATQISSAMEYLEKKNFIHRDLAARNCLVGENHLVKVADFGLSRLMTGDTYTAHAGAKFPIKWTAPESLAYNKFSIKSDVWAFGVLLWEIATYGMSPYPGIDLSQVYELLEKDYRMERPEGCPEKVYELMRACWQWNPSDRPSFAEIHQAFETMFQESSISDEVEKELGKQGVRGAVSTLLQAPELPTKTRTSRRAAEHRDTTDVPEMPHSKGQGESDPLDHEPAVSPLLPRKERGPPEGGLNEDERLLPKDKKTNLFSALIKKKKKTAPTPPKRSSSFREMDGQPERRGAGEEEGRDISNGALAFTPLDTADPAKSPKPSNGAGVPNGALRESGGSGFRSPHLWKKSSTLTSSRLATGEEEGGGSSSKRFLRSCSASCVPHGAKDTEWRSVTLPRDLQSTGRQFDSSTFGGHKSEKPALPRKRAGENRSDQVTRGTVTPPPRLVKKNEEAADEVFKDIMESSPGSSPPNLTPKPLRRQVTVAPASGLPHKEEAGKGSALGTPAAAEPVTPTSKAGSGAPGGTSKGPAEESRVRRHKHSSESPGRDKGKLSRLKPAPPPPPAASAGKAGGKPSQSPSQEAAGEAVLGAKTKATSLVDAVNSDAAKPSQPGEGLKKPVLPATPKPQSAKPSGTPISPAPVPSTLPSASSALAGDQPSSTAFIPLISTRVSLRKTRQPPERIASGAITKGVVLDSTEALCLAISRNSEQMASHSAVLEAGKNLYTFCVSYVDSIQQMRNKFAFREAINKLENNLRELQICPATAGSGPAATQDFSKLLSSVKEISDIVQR

IC50 (Colo205 cells) [nM] | SMILES | also measured
100 to 1000 | Cc1cc(Nc2cc(N3CCN(C(C)(C)CF)CC3)nc(Sc3cc(F)c4nc(C)ccc4c3)n2)[nH]n1 [Compound I-6] | –
100 to 1000 | Cc1cc(Nc2cc(N3CCN(C(C)(C)CF)CC3)nc(Sc3ccc4nc(C(F)(F)F)cn4c3)n2)[nH]n1 [Compound I-11] | –
– | Cc1cc(Nc2cc(N3CCN(C4CCN(C)CC4)CC3)nc(Sc3cc(F)c4nc(C)ccc4c3)n2)[nH]n1 [Compound I-13, 2-(8-fluoro-2-methylquinolin-6-ylthio)-N-(3-methyl-1H-pyrazol-5-yl)-6-(4-(1-methylpiperidin-4-yl)piperazin-1-yl)pyrimidin-4-amine] | Ki (Aurora-1 (Aurora B)): 10 to 20 nM; Ki [1]: < 25 nM; Ki (Aurora-2 (Aurora A)): 1 to 2 nM
100 to 1000 | Cc1cc(Nc2cc(N3CCN(C4CC4)CC3)nc(Sc3ccc4nc(C(F)(F)F)cn4c3)n2)[nH]n1 [Compound I-14] | –
100 to 1000 | Cc1cc(Nc2cc(N3CCN(C4CC4)CC3)nc(Sc3cc(F)c4nc(C)ccc4c3)n2)[nH]n1 [Compound I-15] | –
100 to 1000 | Cc1cc(Nc2cc(N3CCN(C(C)(C)CF)CC3)nc(Sc3ccc4nc(C(F)(F)F)n(C)c4c3)n2)[nH]n1 [Compound I-21] | –
100 to 1000 | Cc1cc(Nc2cc(N3CCN(CC(F)(F)F)CC3)nc(Sc3ccc4nc(C(F)(F)F)cn4c3)n2)[nH]n1 [Compound I-22] | –
100 to 1000 | Cc1cc(Nc2cc(N3CCN(CC(F)(F)F)CC3)nc(Sc3cc(F)c4nc(C)ccc4c3)n2)[nH]n1 [Compound I-23] | –

Source: patent publication US8455507B2, “Aminopyrimidines useful as kinase inhibitors” (Vertex Pharmaceuticals Incorporated, priority 2007, dated 2013)
